Laboratory results: ChEMBL document CHEMBL5316313, “Discovery of Novel 3-Phenylpiperidine Derivatives Targeting the β-Catenin/B-Cell Lymphoma 9 Interaction as a Single Agent and in Combination with the Anti-PD-1 Antibody for the Treatment of Colorectal Cancer” (J Med Chem, 2023)
Calls of active or inactive are those of the source. No cut-off for these calls is given here.

What was measured:
Beta catenin-BCL9 = target: T1, Beta catenin-BCL9 (Mus musculus, UniProt Q02248+Q9D219); experiment: Inhibition of beta-catenin/BCL9 protein-protein interaction in Wnt-dependent mouse CT26 cells assessed as reduction in Axin2 expression level by qRT-PCR assay; assay type: cell-based
T1 sequence (Q02248 whole entry): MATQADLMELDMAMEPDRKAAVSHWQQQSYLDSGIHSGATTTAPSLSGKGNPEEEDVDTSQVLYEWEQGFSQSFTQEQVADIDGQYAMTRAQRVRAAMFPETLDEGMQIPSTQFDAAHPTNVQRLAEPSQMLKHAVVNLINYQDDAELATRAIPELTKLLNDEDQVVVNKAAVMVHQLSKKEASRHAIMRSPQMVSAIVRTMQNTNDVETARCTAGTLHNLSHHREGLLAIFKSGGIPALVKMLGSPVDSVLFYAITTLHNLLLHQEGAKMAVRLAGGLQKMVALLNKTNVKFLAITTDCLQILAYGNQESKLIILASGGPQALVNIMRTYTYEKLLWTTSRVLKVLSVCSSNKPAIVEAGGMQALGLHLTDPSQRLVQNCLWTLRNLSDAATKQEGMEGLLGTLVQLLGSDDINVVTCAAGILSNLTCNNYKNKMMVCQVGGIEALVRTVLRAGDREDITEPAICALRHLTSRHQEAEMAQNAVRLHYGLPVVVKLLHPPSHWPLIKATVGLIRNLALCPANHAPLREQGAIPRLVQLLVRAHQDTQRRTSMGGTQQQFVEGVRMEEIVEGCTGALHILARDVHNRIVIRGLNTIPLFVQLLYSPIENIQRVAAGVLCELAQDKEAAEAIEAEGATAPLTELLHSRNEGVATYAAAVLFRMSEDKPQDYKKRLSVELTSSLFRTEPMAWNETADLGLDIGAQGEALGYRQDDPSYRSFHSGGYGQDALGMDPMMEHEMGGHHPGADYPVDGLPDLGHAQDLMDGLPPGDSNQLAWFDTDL
T1 sequence (Q9D219 whole entry): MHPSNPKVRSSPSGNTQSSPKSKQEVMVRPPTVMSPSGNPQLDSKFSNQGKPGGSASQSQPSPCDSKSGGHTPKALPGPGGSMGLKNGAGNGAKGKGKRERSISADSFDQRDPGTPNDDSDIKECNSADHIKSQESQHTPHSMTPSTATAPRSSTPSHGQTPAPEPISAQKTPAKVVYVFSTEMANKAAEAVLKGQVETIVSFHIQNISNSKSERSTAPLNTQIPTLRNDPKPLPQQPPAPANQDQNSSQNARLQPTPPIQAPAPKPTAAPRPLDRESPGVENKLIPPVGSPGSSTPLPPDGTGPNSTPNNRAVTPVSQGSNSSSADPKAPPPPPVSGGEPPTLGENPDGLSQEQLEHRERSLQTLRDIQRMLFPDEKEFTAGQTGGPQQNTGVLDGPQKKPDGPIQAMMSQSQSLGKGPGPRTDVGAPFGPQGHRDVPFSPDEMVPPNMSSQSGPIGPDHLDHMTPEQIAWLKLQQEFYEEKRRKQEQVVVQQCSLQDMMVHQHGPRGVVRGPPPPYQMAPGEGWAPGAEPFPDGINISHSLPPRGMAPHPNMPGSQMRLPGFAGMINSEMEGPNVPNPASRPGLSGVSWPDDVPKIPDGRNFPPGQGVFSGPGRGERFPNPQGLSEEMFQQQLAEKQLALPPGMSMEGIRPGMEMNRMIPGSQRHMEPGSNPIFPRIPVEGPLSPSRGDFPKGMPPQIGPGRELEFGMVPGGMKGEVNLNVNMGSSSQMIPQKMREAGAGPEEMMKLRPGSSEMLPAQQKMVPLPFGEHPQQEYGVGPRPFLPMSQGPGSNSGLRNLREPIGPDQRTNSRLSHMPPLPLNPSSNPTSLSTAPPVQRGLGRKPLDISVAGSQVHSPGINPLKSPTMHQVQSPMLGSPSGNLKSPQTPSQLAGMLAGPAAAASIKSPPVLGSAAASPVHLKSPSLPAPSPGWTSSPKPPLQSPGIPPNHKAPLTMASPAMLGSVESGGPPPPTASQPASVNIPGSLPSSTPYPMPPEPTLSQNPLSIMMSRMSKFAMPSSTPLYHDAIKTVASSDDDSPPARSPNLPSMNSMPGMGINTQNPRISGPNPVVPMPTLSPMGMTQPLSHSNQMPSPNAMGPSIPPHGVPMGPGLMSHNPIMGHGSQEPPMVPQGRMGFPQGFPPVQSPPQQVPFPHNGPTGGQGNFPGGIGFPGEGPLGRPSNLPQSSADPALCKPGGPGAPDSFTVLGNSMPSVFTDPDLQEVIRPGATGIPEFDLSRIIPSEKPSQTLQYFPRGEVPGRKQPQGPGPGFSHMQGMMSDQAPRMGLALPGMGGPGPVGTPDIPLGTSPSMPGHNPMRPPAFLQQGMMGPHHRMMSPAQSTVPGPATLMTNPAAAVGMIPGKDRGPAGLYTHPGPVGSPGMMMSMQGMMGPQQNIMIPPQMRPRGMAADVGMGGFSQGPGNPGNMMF

CT26 [1] = experiment: Induction of apoptosis in Wnt-dependent mouse CT26 cells assessed as early apoptotic cells at 20 uM incubated for 24 hrs by Annexin V-Alexa Fluor 647/PI staining based flow cytomtery (Rvb=18.3%); assay type: functional
RKO [2] = experiment: Antiproliferative activity against Wnt-independent human RKO cells assessed as cell growth inhibition at 40 uM incubated for 48 hrs by CellTiter-Glo assay; assay type: functional, cell-based
[3] = Toxicity in BALB/c mouse xenografted with mouse CT26 cells assessed as pathological changes in liver at 30 mg/kg, ip QD in presence of anti-PD-1 antibody cotreatment at 10 mg/kg,ip BIW by hematoxylin and eosin staining based microscopic analysis; assay type: organism-based; details: in vivo
[4] = Toxicity in BALB/c mouse xenografted with mouse CT26 cells assessed as pathological changes in kidney at 30 mg/kg, ip QD in presence of anti-PD-1 antibody cotreatment at 10 mg/kg,ip BIW by hematoxylin and eosin staining based microscopic analysis; assay type: organism-based; details: in vivo
CT26 [5] = details: Mus musculus, BALB/c, dose 30.0 mg/kg, route ip
Description: In vivo inhibition of Wnt signaling pathway in mouse CT26 cells implanted in BALB/c mouse assessed as reduction in Cd44 mRNA expression level in tumor at 30 mg/kg, ip QD by qRT-PCR analysis

CT26 [6] = experiment: cells; details: Mus musculus, CT26, 48 h
HCT-116 = experiment: cells; details: Homo sapiens, HCT-116, 48 h
SW480 = experiment: cells; details: Homo sapiens, SW480, 48 h
A549 = experiment: cells; details: Homo sapiens, A549, 48 h
RKO [7] = experiment: cells; details: Homo sapiens, 48 h
HEK293 = experiment: cells; details: Homo sapiens, HEK293, 48 h
CT26 [8] = experiment: cells; details: Mus musculus, CT26, 48 h; remark: listed apart in the source

| Compound | IC50 (Beta catenin-BCL9) | Activity (CT26 [1]) | Activity (RKO [2]) | Activity [3] | Activity [4] | inhibition (CT26 [5]) | IC50 (CT26 [6]) | IC50 (HCT-116) | IC50 (SW480) | IC50 (A549) | IC50 (RKO [7]) | IC50 (HEK293) | IC50 (CT26 [8]) |
| --- | --- | --- | --- | --- | --- | --- | --- | --- | --- | --- | --- | --- | --- |
| CC(C)c1ccc(-c2cccc(S(=O)(=O)N3CCCC(c4cccc(OC(C)(C)C(=O)NS(=O)(=O)c5ccc(C(F)(F)F)cc5)c4)C3)c2)cc1 (stereo not given) | 0.66 µM | 28% | inactive | Non-Toxic | Non-Toxic | Active | 4.74 µM | 9.25 µM | 16.2 µM | > 40 µM | > 40 µM | > 40 µM | 69.7 µM |
| O=C1[C@H](Cc2ccc(O)cc2)N2C(=O)CCN(C(=O)NCc3ccccc3)[C@H]2CN1Cc1cccc2ccccc12 | 4.62 µM |  |  |  |  |  | 18.6 µM | 32.7 µM | 8.43 µM | 54.1 µM | 77.5 µM | 75.4 µM |  |
